Reference: patent publication US9345742B2, “Aminostatin derivatives for the treatment of arthrosis” (MERCK PATENT GMBH, priority 2011, dated 2016)
Numbered stars: 1 amine (or outer) side, 2 acyl side, 3 side chain; on linkers, the order of the positions; unused ones are H or OH. Square brackets hold non-standard residues; d marks the D form. Peptide text beside a SMILES is read from it. * marks the point of attachment. X1 = N[C@@H](CC(=O)[*:2])[C@H](Cc1ccccc1)N[*:1]; Abu = CC[C@H](N)C(=O)O; Boc = CC(C)(C)OC(=O)*

Tests used:
[1] = target: cathepsin D isolated from the human liver (Homo sapiens (Human), UniProt P07339); test: In-vitro fluorescence assay for identification of cathepsin D inhibitors; type: biochemical; details: cathepsin D 1.4 nM, pH 5.5; read-out: CatD assay IC50-
Chain of cathepsin D isolated from the human liver (P07339 65-161): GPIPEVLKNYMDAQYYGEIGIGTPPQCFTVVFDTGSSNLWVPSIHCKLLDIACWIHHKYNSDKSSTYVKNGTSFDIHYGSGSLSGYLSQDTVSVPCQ
Chain of cathepsin D isolated from the human liver (P07339 169-412): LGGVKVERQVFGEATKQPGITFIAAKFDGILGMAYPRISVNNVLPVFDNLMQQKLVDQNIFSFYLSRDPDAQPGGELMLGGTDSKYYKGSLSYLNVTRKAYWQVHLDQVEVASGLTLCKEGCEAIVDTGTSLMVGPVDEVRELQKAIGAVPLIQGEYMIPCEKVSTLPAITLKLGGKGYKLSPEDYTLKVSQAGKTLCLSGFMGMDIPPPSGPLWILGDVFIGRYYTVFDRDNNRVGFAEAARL
Method: In order to identify modulators of cathepsin D activity, a continuous enzymatic test was carried out with a synthetic peptide which carries a fluorescent group (MCA=(7-methoxycoumarin-4-yl)acetyl) which is quenched by energy transfer from a Dpn (2,4 dinitrophenyl) group on the same molecule, in Greiner 384-well nb microtitre plates. Cleavage of the peptidic substrate by cathepsin D causes an increase in the fluorescence intensity. In order to determine the efficacy of substances, the time-dependent increase in the fluorescence intensity in the presence of the substance was compared with the time-dependent increase in fluorescence in the absence of substances. The reference substance used was pepstatin A (Sigma-Aldrich). The substrate used was […](Dnp)d-R—NH2 (Enzo Life Sciences, Lörrach). The enzyme employed was cathepsin D isolated from the human liver (Sigma-Aldrich) in a final concentration of 1.4 nM. The test was carried out in 100 mM sodium acetate buffer, 1.25% (v/v) of DMSO, 0.25% (w/v) of Chaps, pH 5.5. 2 μl of each substance solution with serially diluted substance concentration were added to in each case 4 μl of cathepsin D solution and incubated at room temperature for 10 min. The reaction was started by addition of 2 μl of substrate solution (final concentration 5 μM). After carrying out a starting-point fluorescence measurement (excitation wavelength 340 nm/emission wavelength 450 nm) using an Envision multilabel reader (Perkin Elmer), the reaction was incubated at room temperature for 60 min. The amount of peptide fragment cleaved off during the reaction time was subsequently measured by determination of the increase in the fluorescence intensity at 450 nm (excitation wavelength 340 nm).

bovine explants = test: Cartilage explant assay (pH-induced cartilage degradation, GAG liberation); type: cell-based; details: Bos taurus, 72 h, pH 5.5, 3 days
Text: In order to investigate the effect of potential cathepsin D inhibitors on cartilage degradation, a pH-induced model based on bovine explants is used. The pH of the medium in which the explants are cultivated is matched here to the pathophysiological pH of an arthrotic knee. This pH is pH 5.5. In this ex vivo model, potential cathepsin D inhibitors are subsequently investigated for their action with respect to stopping of the cartilage degradation process. If the cartilage is destroyed, glycosaminoglycans (GAGs) are released into the cell culture supernatant. The amount of GAGs liberated can be determined quantitatively with the aid of DMMB (dimethylmethylene blue hydrochloride). If sulfated GAGs are detected using dimethylmethylene blue hydrochloride, the decrease in the absorption at 633 nm is utilised. […] In order to determine the concentration, a calibration line is also recorded using chondroitin sulfate.
The bovine explants are firstly prepared. The induction of the cartilage degradation is carried out in 96-multiwell plates. One explant is cultivated per well. In each case, 200 μl of DMEM (incubation medium pH 5.5) without FBS+30 μg/ml of ascorbic acid are added. Thus negative control, explants (n=4) are incubated at pH 7.4 (without FBS). This control is not included in the calculation of the data, but instead ensures that the pH change has the desired effect on the liberation of GAG. At this point, the substances to be tested are added. No preincubation of the explants is carried out. The explants are cultivated with the corresponding substances for 3 days in the incubator at 37° C. and 7.5% CO2.
In order to investigate the effect of cathepsin D inhibitors on the liberation of GAG (glycosaminoglycan), the substances are employed in the desired concentration and cultivated for 3 days. The compounds to be tested are tested in a first experiment in a concentration of 1 μM and 1% of DMSO. Substances which have an effect of >50% on the liberation of GAG (this corresponds to <50% of the control in the Assay Explorer) are tested in the next experiment at 100 nM and 1% of DMSO. Substances which have an effect of >50% on the liberation of GAG under these conditions (this corresponds to <50% of the control in the Assay Explorer) are tested in a concentration/effect relationship. The compounds here are investigated in the following concentrations: 30 μM, 10 μM, 3 μM, 1 μM, […], 0.1 μM, 0.03 μM, 0.01 μM.
The positive control used is pepstatin A with a concentration of 0.01 μM. The assay window is defined by the control (pH 5.5), defined as 0% effect, and the control pH 5.5+0.01 μM pepstatin A, defined as 100% effect. After incubation for 3 days, the cell culture supernatants are collected and stored at −20° C. or measured directly. The amount of liberated GAG is measured photometrically.
The effect (1 value) of the respective substance in % based on the positive control (pH 5.5+0.01 μM pepstatin A) and the negative control (pH 5.5) is reported for concentrations of 1 μM and 100 nM. The value represents the average of 4 replicants. In the determination of a concentration/effect relationship, an IC50 value is reported to the database (Assay Explorer).
The cell culture supernatants (200 μl) are either measured directly or stored at −20° C. In order to ensure an accurate determination of the concentration (μg/ml of GAG in the supernatant) of GAG, the measurement values must be located in the linear region of the standard curve. In order to ensure this, various dilutions are routinely introduced (1/5, 1/10, 1/20, 1/40). The dilutions are prepared with medium and introduced automatically (Hamilton) into a 384-well plate (15 μl). 60 μl of DMMB solution are likewise added automatically (or using a multichannel pipette). A rapid colour reaction occurs, which is subsequently measured at 633 nm using a plate reader (for example Envision).

recombinant human renin = recombinant human renin (Homo sapiens (Human), UniProt P00797); test: In-vitro fluorescence assay for identification of renin-inhibitory activity; type: biochemical; details: recombinant human renin 10 nM, pH 7.2; read-out: Renin selectivity IC50
Chain of recombinant human renin (P00797 67-406): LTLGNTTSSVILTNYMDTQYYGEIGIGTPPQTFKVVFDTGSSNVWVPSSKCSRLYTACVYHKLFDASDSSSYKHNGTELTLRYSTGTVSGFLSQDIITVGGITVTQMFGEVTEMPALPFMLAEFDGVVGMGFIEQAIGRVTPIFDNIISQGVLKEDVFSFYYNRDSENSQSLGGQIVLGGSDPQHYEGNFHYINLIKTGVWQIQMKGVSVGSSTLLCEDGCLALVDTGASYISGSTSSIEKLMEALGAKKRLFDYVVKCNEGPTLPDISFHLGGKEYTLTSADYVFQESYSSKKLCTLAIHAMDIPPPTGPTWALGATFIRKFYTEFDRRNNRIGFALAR
Method: In order to identify modulators of renin activity, a continuous enzymatic test was carried out with a synthetic peptide which carries a fluorescent group Edans (=(5-(aminoethyl)aminonaphthalenesulfonate) which is quenched by energy transfer from a Dabcyl (4′-dimethylaminoazobenzene-4-carboxylate) group on the same molecule, in Greiner 384-well microtitre plates. Cleavage of the peptidic substrate by renin causes an increase in the fluorescence intensity. In order to determine the efficacy of substances, the time-dependent increase in the fluorescence intensity in the presence of the substance was compared with the time-dependent increase in fluorescence in the absence of substances. The reference substance used was renin inhibitor 2 (Z-Arg-Arg-Pro-Phe-His-Sta-Ile-His N-Boc-Lys methyl ester Z) (Sigma-Aldrich). The substrate used was renin FRET substrate I (DABCYL-g-Abu-[…]EDANS) (Anaspec, Fremont Calif.). The enzyme employed was recombinant human renin (Proteos, Kalamazoo, Mich.) in a final concentration of 10 nM. The test was carried out in 50 mM Mops buffer, 1.5% (v/v) of DMSO, 0.1% (w/v) of Igepal®, pH 7.2, 0.5% (w/v) of BSA. 2 μl of each substance solution with serially diluted substance concentration were added to in each case 4 μl of renin solution and incubated at room temperature for 15 min. The reaction was started by addition of 4 μl of substrate solution (final concentration 5 μM). After carrying out a starting-point fluorescence measurement (excitation wavelength 340 nm/emission wavelength 495 nm) using an Envision multilabel reader (Perkin Elmer), the reaction was incubated at 37° C. for 60 min. The amount of peptide fragment cleaved off during the reaction time was subsequently measured by determination of the increase in the fluorescence intensity at 495 nm (excitation wavelength 340 nm).

Row | Compound | IC50 [1] [nM] | IC50 (recombinant human renin) [nM] | IC50 (bovine explants) [nM]
1 | CC[C@H](NC(=O)[C@H](CC(C)C)NC(=O)OC(C)(C)C)C(=O)N[C@@H](Cc1ccccc1)[C@@H](N)CC(=O)N[C@H](C(=O)N[C@H](C(=O)OC)C(C)C)[C@@H](C)CC [Compound 1, Methyl (S)-2-((2S,3S)-2-{(3S,4S)-3-amino-4-[(S)-2-((S)-2-tert-butoxycarbonylamino-4-methylpentanoylamino)butyrylamino]-5-phenylpentanoylamino}-3-methylpentanoylamino)-3-methylbutyrate] (Boc-L[Abu][X1]IV-OMe) | 40 |  | 3.13
2 | CC[C@H](NC(=O)[C@H](CC(C)C)NC(=O)CC(C)C)C(=O)N[C@@H](Cc1ccccc1)[C@@H](N)CC(=O)NCCc1ccc2c(c1)OCO2 [Compound 5, N-(2-Benzo-1,3-dioxol-5-ylethyl)-(3S,4S)-3-amino-4-{(S)-2-[(S)-4-methyl-2-(3-methyl-butyrylamino)pentanoylamino]butyryl-amino}-5-phenylpentanamide] | 1800 | > 30000 | 7.73
3 | CC[C@H](C)[C@H](NC(=O)C[C@H](N)[C@H](Cc1ccccc1)NC(=O)[C@@H](NC(=O)CCc1ccccc1)C(C)C)C(=O)N[C@H](C(=O)OC)C(C)C [Compound 17, Methyl (S)-2-((2S,3S)-2-{(3S,4S)-3-amino-4-[(S)-3-methyl-2-(3-phenylpropionylamino)butyrylamino]-5-phenylpentanoylamino}-3-methylpentanoylamino)-3-methyl-butyrate] |  |  | 55.2
4 | CC[C@H](C)[C@H](NC(=O)C[C@H](N)[C@H](Cc1ccccc1)NC(=O)[C@@H](NC(=O)[C@H](CC(C)C)NC(=O)CC(C)C)C(C)C)C(=O)Nc1cccnc1 [Compound 25, N-[(1S,2S)-2-Methyl-1-(pyridin-3-yl-carbamoyl)butyl]-(S)-3-amino-4-{(S)-(S)-3-methyl-2-[(S)-4-methyl-2-(3-methylbutyryl-amino)pentanoylamino]butyrylamino}-5-phenylpentanamide] | 520 | > 30000 | 27.5

Second part, led by results:

Row | IC50 [1] [nM] | IC50 (recombinant human renin) [nM] | Compound | IC50 (bovine explants) [nM]
5 | 28 | > 30000 | CC[C@H](C)[C@H](NC(=O)C[C@H](N)[C@H](Cc1ccccc1)NC(=O)[C@@H](NC(=O)Cc1cccc(OC(F)(F)F)c1)C(C)C)C(=O)NCCC(C)C [Compound 36, N-[(1S,2S)-2-Methyl-1-(3-methylbutyl-carbamoyl)butyl]-(S)-3-(S)-amino-4-{(S)-3-methyl-2-[2-(3-trifluoromethoxyphenyl)-acetylamino]butyrylamino}-5-phenyl-penlanamide] | 13.8
6 | 3.2 | > 30000 | CC[C@H](C)[C@H](NC(=O)C[C@H](N)[C@H](Cc1ccccc1)NC(=O)[C@@H](NC(=O)Cc1cccc(OC(F)(F)F)c1)[C@@H](C)CC)C(=O)N[C@H](C(=O)O)C(C)C [Compound 37, (S)-2-[(2S,3S)-2-((3S,4S)-3-Amino-4-{(1S,4S)-3-methyl-2-[2-(3-trifluoromethoxy-phenyl)acetylamino]pentanoylamino}-5-phenylpentanoylamino)-3-methylpentanoylamino]-3-methylbutyric acid] | 8.2
7 | 240 | > 30000 | CC(C)CC(=O)N[C@@H](CC(C)C)C(=O)N[C@H](C(=O)N[C@@H](Cc1ccccc1)[C@@H](N)CC(=O)N[C@H](COc1cccnc1)C(C)C)C(C)C [Compound 43, N-[(S)-2-Methyl-1-(pyridin-3-yloxymethyl)propyl]-(3S,4S)-3-amino-4-{(S)-3-methyl-2-[(S)-4-methyl-2-(3-methylbutyrylamino)-pentanoylamino]butyrylamino}-5-phenylpentanamide] | 
8 | 39 | > 30000 | CC(C)CC(=O)N[C@@H](CC(C)C)C(=O)N[C@H](C(=O)N[C@@H](Cc1ccccc1)[C@@H](N)CC(=O)N[C@H](COc1ccc(F)cc1F)C(C)C)C(C)C [Compound 44, N-[(S)-1-(2,4-Difluorophenoxymethyl)-2-methylpropyl]-(3S,4S)-3-amino-4-{(S)-3-methyl-2-[(S)-4-methyl-2-(3-methylbutyryl-amino)pentanoylamino]butyrylamino}-5-phenylpentanamide] | 
